Here are results for one compound from the NIST ThermoML archive (doi:10.1016/j.tca.2015.01.022).

Each structure is given as a SMILES string. ± gives the expanded uncertainty stated by the source.

The series can be described thus: Molar enthalpy of transition or fusion. The note with it: Crystal; Adiabatic calorimetry.

For `CCCCCCCC[n+]1ccn(C)c1.F[B-](F)(F)F` [1-methyl-3-octylimidazolium tetrafluoroborate], the “Molar enthalpy of transition or fusion” value came out at 3.659 ± 0.012 kcal/mol.
